Test results taken from patent publication US10238670B2, “9-aminomethyl minocycline compounds and methods of use thereof in urinary tract infection (UTI) treatment” (Paratek Pharmaceuticals, Inc., priority 2016, dated 2019).
Values after ≈ are worked out from the molar mass of the structure shown. Read-outs that look alike come from different tables or passages of the source.

What was measured:
Assay in all cases: In vitro MIC, 2010 surveillance isolates
MS CoNS = assay type: cell-based, Coagulase-Negative Staphylococcus
K. pneumoniae ESBL− = assay type: cell-based, Klebsiella pneumoniae
E. faecium VNS = assay type: cell-based; conditions: for % R (resistance): CLSI breakpoints
Enterobacter spp = assay type: cell-based
E. faecium VS = assay type: cell-based; conditions: for % R (resistance): CLSI breakpoints
K. pneumoniae ESBL+ = assay type: cell-based, Klebsiella pneumoniae
MR CoNS = assay type: cell-based, Coagulase-Negative Staphylococcus
K. oxytoca = assay type: cell-based
Acinetobacter spp = assay type: cell-based
E. cloacae CeftazS = assay type: cell-based
E. coli ESBL+ = assay type: cell-based, Escherichia coli
MRSA = assay type: cell-based
A. baumanii = assay type: cell-based
E. faecalis VNS = assay type: cell-based; conditions: for % R (resistance): CLSI breakpoints
E. cloacae CeftazR = assay type: cell-based
E. coli ESBL− = assay type: cell-based, Escherichia coli
E. faecalis VS = assay type: cell-based; conditions: for % R (resistance): CLSI breakpoints
MSSA = assay type: cell-based

## C[C@H]1COc2c(N3CCN(C)CC3)c(F)cc3c(=O)c(C(=O)O)cn1c23 [Levofloxacin]
MS CoNS; Asia/Pac, Eucast breakpoints
  % R (resistance): 16.7%
MS CoNS; Asia/Pac, N=18
  MIC90: > 4 µg/mL
MS CoNS; Europe, Eucast breakpoints
  % R (resistance): 9.7%
MS CoNS; Europe, N=185
  MIC90: 2 µg/mL (≈ 5.53 µM)
MS CoNS; L. Amer, CLSI breakpoints
  % R (resistance): 6%
MS CoNS; L. Amer, N=67
  MIC90: ≤ 0.5 µg/mL
MS CoNS; N America, CLSI breakpoints
  % R (resistance): 23.6%
MS CoNS; N America, N=191
  MIC90: > 4 µg/mL
K. pneumoniae ESBL−; Asia/Pac, Eucast breakpoints
  % R (resistance): 5.3%
K. pneumoniae ESBL−; Asia/Pac, N=189
  MIC90: 1 µg/mL (≈ 2.77 µM)
K. pneumoniae ESBL−; Europe, Eucast breakpoints
  % R (resistance): 4.2%
K. pneumoniae ESBL−; Europe, N=361
  MIC90: ≤ 0.5 µg/mL
K. pneumoniae ESBL−; L. Amer, CLSI breakpoints
  % R (resistance): 7.5%
K. pneumoniae ESBL−; L. Amer, N=160
  MIC90: 1 µg/mL (≈ 2.77 µM)
K. pneumoniae ESBL−; N America, CLSI breakpoints
  % R (resistance): 1.9%
K. pneumoniae ESBL−; N America, N=671
  MIC90: ≤ 0.5 µg/mL
E. faecium VNS; Asia/Pac, N=24
  MIC90: > 4 µg/mL
E. faecium VNS; Europe, N=71
  MIC90: > 4 µg/mL
E. faecium VNS; L. Amer
  % R (resistance): 100%
E. faecium VNS; L. Amer, N=41
  MIC90: > 4 µg/mL
E. faecium VNS; N America
  % R (resistance): 99.6%
E. faecium VNS; N America, N=478
  MIC90: > 4 µg/mL
Enterobacter spp; Asia/Pac, Eucast breakpoints
  % R (resistance): 1.9%
Enterobacter spp; Asia/Pac, N=52
  MIC90: ≤ 0.5 µg/mL
Enterobacter spp; Europe, Eucast breakpoints
  % R (resistance): 73%
Enterobacter spp; Europe, N=82
  MIC90: 1 µg/mL (≈ 2.77 µM)
Enterobacter spp; L. Amer, CLSI breakpoints
  % R (resistance): 9.5%
Enterobacter spp; L. Amer, N=42
  MIC90: 4 µg/mL (≈ 11.1 µM)
Enterobacter spp; N America, CLSI breakpoints
  % R (resistance): 1%
Enterobacter spp; N America, N=101
  MIC90: ≤ 0.5 µg/mL
E. faecium VS; Asia/Pac, N=106
  MIC90: > 4 µg/mL
E. faecium VS; Europe, N=303
  MIC90: > 4 µg/mL
E. faecium VS; L. Amer
  % R (resistance): 78.4%
E. faecium VS; L. Amer, N=51
  MIC90: > 4 µg/mL
E. faecium VS; N America
  % R (resistance): 68.7%
E. faecium VS; N America, N=115
  MIC90: > 4 µg/mL
K. pneumoniae ESBL+; Asia/Pac, Eucast breakpoints
  % R (resistance): 61.3%
K. pneumoniae ESBL+; Asia/Pac, N=124
  MIC90: > 4 µg/mL
K. pneumoniae ESBL+; Europe, Eucast breakpoints
  % R (resistance): 66.9%
K. pneumoniae ESBL+; Europe, N=151
  MIC90: > 4 µg/mL
K. pneumoniae ESBL+; L. Amer, CLSI breakpoints
  % R (resistance): 67.9%
K. pneumoniae ESBL+; L. Amer, N=209
  MIC90: > 4 µg/mL
K. pneumoniae ESBL+; N America, CLSI breakpoints
  % R (resistance): 75%
K. pneumoniae ESBL+; N America, N=108
  MIC90: > 4 µg/mL
MR CoNS; Asia/Pac, Eucast breakpoints
  % R (resistance): 55.8%
MR CoNS; Asia/Pac, N=77
  MIC90: > 4 µg/mL
MR CoNS; Europe, Eucast breakpoints
  % R (resistance): 64.9%
MR CoNS; Europe, N=510
  MIC90: > 4 µg/mL
MR CoNS; L. Amer, CLSI breakpoints
  % R (resistance): 57.8%
MR CoNS; L. Amer, N=301
  MIC90: > 4 µg/mL
MR CoNS; N America, CLSI breakpoints
  % R (resistance): 64.9%
MR CoNS; N America, N=461
  MIC90: > 4 µg/mL
K. oxytoca; Asia/Pac, Eucast breakpoints
  % R (resistance): 0%
K. oxytoca; Asia/Pac, N=17
  MIC90: ≤ 0.5 µg/mL
K. oxytoca; Europe, Eucast breakpoints
  % R (resistance): 3.2%
K. oxytoca; Europe, N=158
  MIC90: ≤ 0.5 µg/mL
K. oxytoca; L. Amer, CLSI breakpoints
  % R (resistance): 16%
K. oxytoca; L. Amer, N=25
  MIC90: > 4 µg/mL
K. oxytoca; N America, CLSI breakpoints
  % R (resistance): 1.7%
K. oxytoca; N America, N=177
  MIC90: ≤ 0.5 µg/mL
Acinetobacter spp; Asia/Pac, Eucast breakpoints
  % R (resistance): 11.1%
Acinetobacter spp; Europe, Eucast breakpoints
  % R (resistance): 41.9%
Acinetobacter spp; Europe, N=43
  MIC90: > 4 µg/mL
Acinetobacter spp; L. Amer, CLSI breakpoints
  % R (resistance): 33.3%
Acinetobacter spp; N America, CLSI breakpoints
  % R (resistance): 14.3%
Acinetobacter spp; N America, N=42
  MIC90: > 4 µg/mL
E. cloacae CeftazS; Asia/Pac, Eucast breakpoints
  % R (resistance): 4%
E. cloacae CeftazS; Asia/Pac, N=100
  MIC90: ≤ 0.5 µg/mL
E. cloacae CeftazS; Europe, Eucast breakpoints
  % R (resistance): 2.2%
E. cloacae CeftazS; Europe, N=183
  MIC90: ≤ 0.5 µg/mL
E. cloacae CeftazS; L. Amer, CLSI breakpoints
  % R (resistance): 12.3%
E. cloacae CeftazS; L. Amer, N=57
  MIC90: > 4 µg/mL
E. cloacae CeftazS; N America, CLSI breakpoints
  % R (resistance): 2.9%
E. cloacae CeftazS; N America, N=210
  MIC90: ≤ 0.5 µg/mL
E. coli ESBL+; Asia/Pac, Eucast breakpoints
  % R (resistance): 78.1%
E. coli ESBL+; Asia/Pac, N=219
  MIC90: > 4 µg/mL
E. coli ESBL+; E. coli
  resistance rates for ESBL-producing clinical isolates: 76.5%
E. coli ESBL+; Escherichia coli, ESBL-producing E. coli, read-out: MIC90
  MIC90: > 4 µg/mL
E. coli ESBL+; Europe, Eucast breakpoints
  % R (resistance): 79.2%
E. coli ESBL+; Europe, N=274
  MIC90: > 4 µg/mL
E. coli ESBL+; L. Amer, CLSI breakpoints
  % R (resistance): 81%
E. coli ESBL+; L. Amer, N=168
  MIC90: > 4 µg/mL
E. coli ESBL+; N America, CLSI breakpoints
  % R (resistance): 74.6%
E. coli ESBL+; N America, N=134
  MIC90: > 4 µg/mL
MRSA; Asia/Pac, Eucast breakpoints
  % R (resistance): 70.6%
MRSA; Asia/Pac, N=428
  MIC90: > 4 µg/mL
MRSA; Europe, Eucast breakpoints
  % R (resistance): 86.4%
MRSA; Europe, N=750
  MIC90: > 4 µg/mL
MRSA; L. Amer, CLSI breakpoints
  % R (resistance): 84%
MRSA; L. Amer, N=506
  MIC90: > 4 µg/mL
MRSA; N America, CLSI breakpoints
  % R (resistance): 67.3%
MRSA; N America, N=2508
  MIC90: > 4 µg/mL
A. baumanii; Asia/Pac, Eucast breakpoints
  % R (resistance): 79.3%
A. baumanii; Asia/Pac, N=275
  MIC90: > 4 µg/mL
A. baumanii; Europe, Eucast breakpoints
  % R (resistance): 74.5%
A. baumanii; Europe, N=145
  MIC90: > 4 µg/mL
A. baumanii; L. Amer, CLSI breakpoints
  % R (resistance): 86.9%
A. baumanii; L. Amer, N=275
  MIC90: > 4 µg/mL
A. baumanii; N America, CLSI breakpoints
  % R (resistance): 68.8%
A. baumanii; N America, N=154
  MIC90: > 4 µg/mL
E. faecalis VNS; Asia/Pac, N=1
  range of MICs (N <10, shown instead of MIC90): >4
E. faecalis VNS; L. Amer
  % R (resistance): 100%
E. faecalis VNS; L. Amer, N=7
  range of MICs (N <10, shown instead of MIC90): > 4
E. faecalis VNS; N America
  % R (resistance): 97.4%
E. faecalis VNS; N America, N=38
  MIC90: > 4 µg/mL
E. cloacae CeftazR; Asia/Pac, Eucast breakpoints
  % R (resistance): 20.6%
E. cloacae CeftazR; Asia/Pac, N=63
  MIC90: > 4 µg/mL
E. cloacae CeftazR; Europe, Eucast breakpoints
  % R (resistance): 22.2%
E. cloacae CeftazR; Europe, N=72
  MIC90: > 4 µg/mL
E. cloacae CeftazR; L. Amer, CLSI breakpoints
  % R (resistance): 31%
E. cloacae CeftazR; L. Amer, N=42
  MIC90: > 4 µg/mL
E. cloacae CeftazR; N America, CLSI breakpoints
  % R (resistance): 19.5%
E. cloacae CeftazR; N America, N=77
  MIC90: > 4 µg/mL
E. coli ESBL−; Asia/Pac, Eucast breakpoints
  % R (resistance): 17%
E. coli ESBL−; Asia/Pac, N=282
  MIC90: > 4 µg/mL
E. coli ESBL−; Europe, Eucast breakpoints
  % R (resistance): 19.3%
E. coli ESBL−; Europe, N=1533
  MIC90: > 4 µg/mL
E. coli ESBL−; L. Amer, CLSI breakpoints
  % R (resistance): 22.9%
E. coli ESBL−; L. Amer, N=389
  MIC90: > 4 µg/mL
E. coli ESBL−; N America, CLSI breakpoints
  % R (resistance): 21.9%
E. coli ESBL−; N America, N=1172
  MIC90: > 4 µg/mL
E. faecalis VS; Asia/Pac, N=214
  MIC90: > 4 µg/mL
E. faecalis VS; Europe, N=669
  MIC90: > 4 µg/mL
E. faecalis VS; L. Amer
  % R (resistance): 30%
E. faecalis VS; L. Amer, N=290
  MIC90: > 4 µg/mL
E. faecalis VS; N America
  % R (resistance): 29.3%
E. faecalis VS; N America, N=863
  MIC90: > 4 µg/mL
MSSA; Asia/Pac, Eucast breakpoints
  % R (resistance): 5.9%
MSSA; Asia/Pac, N=641
  MIC90: ≤ 0.5 µg/mL
MSSA; Europe, Eucast breakpoints
  % R (resistance): 5.5%
MSSA; Europe, N=2109
  MIC90: ≤ 0.5 µg/mL
MSSA; L. Amer, CLSI breakpoints
  % R (resistance): 2.2%
MSSA; L. Amer, N=590
  MIC90: ≤ 0.5 µg/mL
MSSA; N America, CLSI breakpoints
  % R (resistance): 10.8%
MSSA; N America, N=2373
  MIC90: 4 µg/mL (≈ 11.1 µM)
